According to ChEMBL document CHEMBL1201862, “PubChem BioAssay data set” (2004):
Calls of active or inactive are those of the source.

Legend:
Assay type in all cases: functional
[1] = Luminescence Cell-Based Dose Confirmation HTS to Identify Activators of 5'UTR Stem-Loop Driven Alpha-Synuclein mRNA Translation in H4 Neuroglioblastoma Cells. [Related pubchem assays: 1829 (Project Summary), 1814 (Primary HTS)]
Caspase-3 = target: T1, Caspase-3 (Homo sapiens, UniProt P42574);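 also: Dose-response selectivity test against caspase-3 for candidate inhibitors of sentrin-specific proteases (SENPs)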
T1 sequence (P42574 whole entry): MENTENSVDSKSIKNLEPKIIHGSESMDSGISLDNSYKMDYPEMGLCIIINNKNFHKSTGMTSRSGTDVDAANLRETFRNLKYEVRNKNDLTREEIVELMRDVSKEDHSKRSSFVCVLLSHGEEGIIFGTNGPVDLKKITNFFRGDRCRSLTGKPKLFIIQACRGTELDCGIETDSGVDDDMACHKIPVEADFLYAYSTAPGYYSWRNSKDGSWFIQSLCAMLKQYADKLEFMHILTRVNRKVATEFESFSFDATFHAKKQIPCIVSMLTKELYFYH

[2] = target: T2, Tyrosine-protein kinase JAK3 (Homo sapiens, UniProt P52333)
T2 sequence (P52333 whole entry): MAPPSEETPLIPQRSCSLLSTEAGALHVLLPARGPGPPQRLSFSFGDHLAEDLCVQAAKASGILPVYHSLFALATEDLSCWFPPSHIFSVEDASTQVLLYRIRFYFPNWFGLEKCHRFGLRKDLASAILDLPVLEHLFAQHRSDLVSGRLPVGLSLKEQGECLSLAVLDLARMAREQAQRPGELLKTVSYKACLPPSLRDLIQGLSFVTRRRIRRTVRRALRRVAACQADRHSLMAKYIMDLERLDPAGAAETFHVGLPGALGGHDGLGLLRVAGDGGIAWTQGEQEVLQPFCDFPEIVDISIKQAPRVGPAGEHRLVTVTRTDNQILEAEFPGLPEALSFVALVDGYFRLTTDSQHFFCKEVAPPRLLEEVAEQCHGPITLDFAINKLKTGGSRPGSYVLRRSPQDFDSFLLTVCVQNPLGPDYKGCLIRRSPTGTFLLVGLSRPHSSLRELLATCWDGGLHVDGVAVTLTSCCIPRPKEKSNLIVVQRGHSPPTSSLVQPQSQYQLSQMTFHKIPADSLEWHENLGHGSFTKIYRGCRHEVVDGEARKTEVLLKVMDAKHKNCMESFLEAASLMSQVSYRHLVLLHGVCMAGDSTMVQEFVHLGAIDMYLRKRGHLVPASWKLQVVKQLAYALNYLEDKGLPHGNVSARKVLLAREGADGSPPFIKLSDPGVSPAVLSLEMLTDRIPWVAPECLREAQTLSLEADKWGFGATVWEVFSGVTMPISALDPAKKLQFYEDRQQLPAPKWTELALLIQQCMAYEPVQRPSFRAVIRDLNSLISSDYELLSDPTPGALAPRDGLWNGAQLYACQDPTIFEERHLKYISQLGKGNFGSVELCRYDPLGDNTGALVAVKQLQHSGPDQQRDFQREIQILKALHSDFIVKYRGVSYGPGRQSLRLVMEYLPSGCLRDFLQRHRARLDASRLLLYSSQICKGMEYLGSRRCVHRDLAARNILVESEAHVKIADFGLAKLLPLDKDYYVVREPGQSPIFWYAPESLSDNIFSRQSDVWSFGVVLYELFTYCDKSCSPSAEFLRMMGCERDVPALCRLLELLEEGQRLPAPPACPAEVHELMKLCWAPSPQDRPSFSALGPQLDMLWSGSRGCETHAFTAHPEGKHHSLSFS

[3] = target: Platelet-derived growth factor receptor beta (Homo sapiens, UniProt P09619);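 also: value comes from a kinome panel, with PDGFRB tested as one panel member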
[4] = target: Dual specificity protein kinase CLK4 (Homo sapiens, UniProt Q9HAZ1)
Sequence of Dual specificity protein kinase CLK4 (Q9HAZ1 whole entry): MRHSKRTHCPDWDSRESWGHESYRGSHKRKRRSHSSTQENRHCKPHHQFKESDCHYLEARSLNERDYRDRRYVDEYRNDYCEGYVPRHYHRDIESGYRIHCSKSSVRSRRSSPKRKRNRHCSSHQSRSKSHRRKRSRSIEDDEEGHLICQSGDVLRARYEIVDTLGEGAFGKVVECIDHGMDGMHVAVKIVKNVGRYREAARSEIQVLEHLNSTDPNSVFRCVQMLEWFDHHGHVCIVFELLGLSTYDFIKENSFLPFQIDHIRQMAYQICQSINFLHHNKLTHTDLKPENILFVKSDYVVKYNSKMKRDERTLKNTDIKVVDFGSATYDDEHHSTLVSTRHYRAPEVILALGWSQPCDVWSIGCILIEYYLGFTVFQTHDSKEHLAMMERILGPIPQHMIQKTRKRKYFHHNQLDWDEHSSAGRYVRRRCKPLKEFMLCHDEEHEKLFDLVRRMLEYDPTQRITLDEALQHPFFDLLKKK

[5] = target: Inhibitor of nuclear factor kappa-B kinase subunit epsilon (Homo sapiens, UniProt Q14164); assay: Navigating the Kinome. Panel member name: IKBKE
Sequence of Inhibitor of nuclear factor kappa-B kinase subunit epsilon (Q14164 whole entry): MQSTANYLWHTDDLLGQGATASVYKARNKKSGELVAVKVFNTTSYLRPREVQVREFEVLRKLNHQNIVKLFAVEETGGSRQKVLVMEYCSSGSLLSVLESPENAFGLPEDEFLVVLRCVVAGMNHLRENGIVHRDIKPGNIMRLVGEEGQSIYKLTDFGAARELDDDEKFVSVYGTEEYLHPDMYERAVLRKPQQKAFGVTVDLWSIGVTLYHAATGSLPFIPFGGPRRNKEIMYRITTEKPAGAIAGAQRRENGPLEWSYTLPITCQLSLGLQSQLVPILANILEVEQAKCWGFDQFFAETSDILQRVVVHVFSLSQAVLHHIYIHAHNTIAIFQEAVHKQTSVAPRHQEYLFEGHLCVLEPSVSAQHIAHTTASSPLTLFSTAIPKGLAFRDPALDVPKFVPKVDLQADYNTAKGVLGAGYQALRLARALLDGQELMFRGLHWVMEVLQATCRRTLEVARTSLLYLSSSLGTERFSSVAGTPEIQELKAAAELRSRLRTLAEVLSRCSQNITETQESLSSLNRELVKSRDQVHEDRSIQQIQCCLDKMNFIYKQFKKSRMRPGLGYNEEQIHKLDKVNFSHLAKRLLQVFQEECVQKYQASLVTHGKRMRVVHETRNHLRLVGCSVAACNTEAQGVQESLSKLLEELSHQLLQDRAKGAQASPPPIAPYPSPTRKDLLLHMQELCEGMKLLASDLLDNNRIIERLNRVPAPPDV

[6] = target: Tyrosine-protein kinase Fyn (Homo sapiens, UniProt P06241)
Sequence of Tyrosine-protein kinase Fyn (P06241 whole entry): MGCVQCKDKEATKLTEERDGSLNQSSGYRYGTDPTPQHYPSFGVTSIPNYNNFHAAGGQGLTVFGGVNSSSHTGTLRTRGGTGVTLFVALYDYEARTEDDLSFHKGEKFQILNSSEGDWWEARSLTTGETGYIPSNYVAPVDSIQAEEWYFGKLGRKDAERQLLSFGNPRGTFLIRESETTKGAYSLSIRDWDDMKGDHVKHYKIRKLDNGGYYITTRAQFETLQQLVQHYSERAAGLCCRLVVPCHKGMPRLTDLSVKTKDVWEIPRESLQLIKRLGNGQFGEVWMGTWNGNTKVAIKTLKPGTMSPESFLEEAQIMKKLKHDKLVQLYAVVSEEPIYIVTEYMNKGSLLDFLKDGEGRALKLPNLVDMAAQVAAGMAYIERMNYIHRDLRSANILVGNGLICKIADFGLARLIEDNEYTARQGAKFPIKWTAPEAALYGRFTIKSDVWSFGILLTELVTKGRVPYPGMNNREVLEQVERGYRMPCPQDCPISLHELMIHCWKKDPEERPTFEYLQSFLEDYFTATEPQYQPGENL

[7] = target: T3, Testis-specific serine/threonine-protein kinase 2 (Homo sapiens, UniProt Q96PF2);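 also: part of the Navigating the Kinome panel, target entry STK22B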
T3 sequence (Q96PF2 whole entry): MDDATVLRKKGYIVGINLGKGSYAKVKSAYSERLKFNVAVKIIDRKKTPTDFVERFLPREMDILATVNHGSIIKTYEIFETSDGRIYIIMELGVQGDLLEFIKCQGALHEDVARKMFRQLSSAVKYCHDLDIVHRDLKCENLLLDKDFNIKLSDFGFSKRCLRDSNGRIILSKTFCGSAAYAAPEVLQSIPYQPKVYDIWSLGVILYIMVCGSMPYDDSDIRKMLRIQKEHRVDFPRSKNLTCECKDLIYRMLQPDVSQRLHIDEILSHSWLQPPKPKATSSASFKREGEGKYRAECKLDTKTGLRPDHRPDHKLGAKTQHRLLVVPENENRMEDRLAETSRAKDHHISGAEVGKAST

[8] = target: Non-receptor tyrosine-protein kinase TYK2 (Homo sapiens, UniProt P29597)
Ephrin type-A receptor 2 = Ephrin type-A receptor 2 (Homo sapiens, UniProt P29317);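 also: EPHA2 tested as one member of a kinome-wide kinase panel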
[9] = target: Insulin-like growth factor 1 receptor (Homo sapiens, UniProt P08069); assay: Navigating the Kinome. Panel member name: IGF1R
[10] = target: Mitogen-activated protein kinase 1 (Homo sapiens, UniProt P28482)
Misshapen-like kinase 1 = Misshapen-like kinase 1 (Homo sapiens, UniProt Q8N4C8);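 also: kinome panel screen with MINK as the panel member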
Sequence of Misshapen-like kinase 1 (Q8N4C8 whole entry): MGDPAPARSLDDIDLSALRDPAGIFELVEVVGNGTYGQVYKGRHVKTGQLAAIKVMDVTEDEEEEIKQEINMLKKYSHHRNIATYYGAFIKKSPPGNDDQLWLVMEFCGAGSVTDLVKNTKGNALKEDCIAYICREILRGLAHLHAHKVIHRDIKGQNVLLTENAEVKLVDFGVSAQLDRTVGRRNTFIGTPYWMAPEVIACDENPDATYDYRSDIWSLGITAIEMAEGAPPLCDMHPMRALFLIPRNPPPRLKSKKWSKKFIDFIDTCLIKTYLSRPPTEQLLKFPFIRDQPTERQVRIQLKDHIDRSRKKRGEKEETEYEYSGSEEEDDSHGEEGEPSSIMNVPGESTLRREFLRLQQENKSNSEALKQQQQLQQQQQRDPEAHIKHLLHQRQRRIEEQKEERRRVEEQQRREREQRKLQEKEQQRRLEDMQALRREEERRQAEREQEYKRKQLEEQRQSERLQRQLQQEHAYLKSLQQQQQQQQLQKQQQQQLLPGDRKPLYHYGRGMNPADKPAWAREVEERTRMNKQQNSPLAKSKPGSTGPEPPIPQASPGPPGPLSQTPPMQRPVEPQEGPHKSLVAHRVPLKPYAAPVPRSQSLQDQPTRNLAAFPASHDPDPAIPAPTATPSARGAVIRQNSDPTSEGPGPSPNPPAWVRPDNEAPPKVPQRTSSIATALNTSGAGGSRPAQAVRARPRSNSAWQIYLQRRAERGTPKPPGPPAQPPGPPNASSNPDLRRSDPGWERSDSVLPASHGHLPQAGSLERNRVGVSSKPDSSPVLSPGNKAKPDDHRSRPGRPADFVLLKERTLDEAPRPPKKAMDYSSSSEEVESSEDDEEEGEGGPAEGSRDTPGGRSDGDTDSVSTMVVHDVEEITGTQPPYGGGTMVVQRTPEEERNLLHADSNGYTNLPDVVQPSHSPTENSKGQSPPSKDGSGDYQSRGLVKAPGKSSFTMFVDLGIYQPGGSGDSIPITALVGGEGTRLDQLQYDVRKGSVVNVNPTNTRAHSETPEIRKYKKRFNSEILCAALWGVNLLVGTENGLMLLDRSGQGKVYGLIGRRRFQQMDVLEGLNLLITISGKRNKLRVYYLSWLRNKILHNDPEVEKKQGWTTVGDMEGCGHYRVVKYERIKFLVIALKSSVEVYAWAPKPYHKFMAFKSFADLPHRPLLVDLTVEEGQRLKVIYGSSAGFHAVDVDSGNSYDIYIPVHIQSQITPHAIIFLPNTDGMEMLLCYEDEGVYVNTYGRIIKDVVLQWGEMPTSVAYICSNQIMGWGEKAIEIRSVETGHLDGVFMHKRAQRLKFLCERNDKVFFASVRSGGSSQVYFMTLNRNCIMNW

[11] = target: Interleukin-1 receptor-associated kinase 1 (Homo sapiens, UniProt P51617);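 also: IRAK1 tested as one member of a kinome panel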
[12] = target: Interleukin-1 receptor-associated kinase 4 (Homo sapiens, UniProt Q9NWZ3)
[13] = target: RAC-alpha serine/threonine-protein kinase (Homo sapiens, UniProt P31749);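 also: AKT1 affinity measured as one member of a kinome-wide kinase profiling panel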
Sequence of RAC-alpha serine/threonine-protein kinase (P31749 whole entry): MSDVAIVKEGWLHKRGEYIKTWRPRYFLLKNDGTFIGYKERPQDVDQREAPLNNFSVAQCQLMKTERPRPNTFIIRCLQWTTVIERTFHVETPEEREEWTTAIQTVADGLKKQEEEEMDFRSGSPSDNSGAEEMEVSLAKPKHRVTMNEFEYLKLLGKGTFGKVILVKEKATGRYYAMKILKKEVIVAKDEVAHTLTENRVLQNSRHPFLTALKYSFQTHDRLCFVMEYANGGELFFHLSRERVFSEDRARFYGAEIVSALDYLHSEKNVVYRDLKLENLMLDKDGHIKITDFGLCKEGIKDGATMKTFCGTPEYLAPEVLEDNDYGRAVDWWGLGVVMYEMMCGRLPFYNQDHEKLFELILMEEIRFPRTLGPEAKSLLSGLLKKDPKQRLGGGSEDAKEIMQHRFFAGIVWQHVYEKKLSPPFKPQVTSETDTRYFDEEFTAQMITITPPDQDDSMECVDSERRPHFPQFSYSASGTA

[14] = target: STE20-like serine/threonine-protein kinase (Homo sapiens, UniProt Q9H2G2)
[15] = target: Fibroblast growth factor receptor 3 (Homo sapiens, UniProt P22607)
Sequence of Fibroblast growth factor receptor 3 (P22607 whole entry): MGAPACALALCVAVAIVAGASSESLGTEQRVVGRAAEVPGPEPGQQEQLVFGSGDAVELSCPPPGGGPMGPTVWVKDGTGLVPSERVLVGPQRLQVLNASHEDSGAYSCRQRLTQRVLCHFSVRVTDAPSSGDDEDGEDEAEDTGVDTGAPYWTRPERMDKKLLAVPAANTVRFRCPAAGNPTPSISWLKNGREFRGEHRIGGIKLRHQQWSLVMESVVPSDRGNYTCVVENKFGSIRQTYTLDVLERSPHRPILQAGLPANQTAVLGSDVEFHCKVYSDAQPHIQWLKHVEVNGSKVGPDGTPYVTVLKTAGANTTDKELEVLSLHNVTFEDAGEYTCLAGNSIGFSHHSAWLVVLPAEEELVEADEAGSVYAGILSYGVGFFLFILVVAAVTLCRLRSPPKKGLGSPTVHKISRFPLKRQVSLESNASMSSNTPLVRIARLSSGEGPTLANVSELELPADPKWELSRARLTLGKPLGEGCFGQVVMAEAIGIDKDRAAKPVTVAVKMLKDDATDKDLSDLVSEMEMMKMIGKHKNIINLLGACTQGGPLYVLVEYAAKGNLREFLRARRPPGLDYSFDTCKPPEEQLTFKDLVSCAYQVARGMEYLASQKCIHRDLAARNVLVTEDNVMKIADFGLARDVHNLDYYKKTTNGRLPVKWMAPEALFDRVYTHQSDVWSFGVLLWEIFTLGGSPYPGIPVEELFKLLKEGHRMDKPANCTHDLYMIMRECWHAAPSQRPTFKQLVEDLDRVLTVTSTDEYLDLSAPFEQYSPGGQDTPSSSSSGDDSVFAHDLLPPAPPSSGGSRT

[16] = target: Serine/threonine-protein kinase PLK1 (Homo sapiens, UniProt P53350);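 also: PLK1 measured as one member of a kinome-wide profiling panel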
[17] = target: Serine/threonine-protein kinase BRSK1 (Homo sapiens, UniProt Q8TDC3);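 also: measured within a kinome-wide kinase panel, with the target listed as KIAA1811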
[18] = target: Eukaryotic elongation factor 2 kinase (Homo sapiens, UniProt O00418)
Sequence of Eukaryotic elongation factor 2 kinase (O00418 whole entry): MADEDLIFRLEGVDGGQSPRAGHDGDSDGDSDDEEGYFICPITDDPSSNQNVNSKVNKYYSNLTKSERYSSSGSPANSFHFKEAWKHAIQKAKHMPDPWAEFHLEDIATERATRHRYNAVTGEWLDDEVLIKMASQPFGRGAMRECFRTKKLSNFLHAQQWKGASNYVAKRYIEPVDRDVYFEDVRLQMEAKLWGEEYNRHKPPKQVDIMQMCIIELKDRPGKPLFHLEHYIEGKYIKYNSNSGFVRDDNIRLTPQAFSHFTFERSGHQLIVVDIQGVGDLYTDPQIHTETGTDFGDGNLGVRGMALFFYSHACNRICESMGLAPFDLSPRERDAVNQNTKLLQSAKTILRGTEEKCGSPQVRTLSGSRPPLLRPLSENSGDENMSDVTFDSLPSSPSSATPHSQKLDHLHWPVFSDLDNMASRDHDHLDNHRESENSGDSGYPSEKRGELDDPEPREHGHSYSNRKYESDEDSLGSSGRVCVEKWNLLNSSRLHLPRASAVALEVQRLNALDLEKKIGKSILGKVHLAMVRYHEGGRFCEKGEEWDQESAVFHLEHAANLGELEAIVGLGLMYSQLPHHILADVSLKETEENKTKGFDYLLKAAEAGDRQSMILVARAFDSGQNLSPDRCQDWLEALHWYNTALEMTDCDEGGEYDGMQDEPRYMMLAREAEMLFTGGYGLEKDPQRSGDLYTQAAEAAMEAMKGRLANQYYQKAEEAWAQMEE

With O=C1C2=[N+]([O-])[C@H]3CCCC[C@H]3[N+]([O-])=C2c2ccccc21 the EC50 [1] was > 120 µM (not active) and the IC50 (Caspase-3) was 15.4 µM (active).

For OCc1cc(-c2ccc3[nH]ncc3c2)on1, the Ki [2] was 100 µM (active), the Ki [3] was 50.1 µM (active) and the Ki [4] was 31.6 nM (active). For the same compound, the Ki [5] was 20 µM (active).

For CC(C)(O)c1cn(-c2ccc3[nH]ncc3c2)nn1, the Ki [6] was 100 µM (active), the Ki [4] was 79.4 nM (active) and the Ki [5] was 31.6 µM (active).

In the case of NC1CCC(Nc2nccc(-c3c[nH]c4ncccc34)n2)CC1 (configuration not stated), the Ki [7] is reported as 794 nM (active), the Ki [2] is reported as 0.398 µM (active) and the Ki [8] is reported as 794 nM (active). For the same compound, the Ki (Ephrin type-A receptor 2) was > 3.16 µM (inactive), the Ki [9] was > 2 µM (inactive) and the Ki [10] was 1.58 µM (active). The Ki (Misshapen-like kinase 1) was 251 nM (active), the Ki [11] was 126 nM (active) and the Ki [12] was 50.1 nM (active). The Ki [13] was 1.26 µM (active), the Ki [6] was > 0.794 µM (inactive) and the Ki [14] was 398 nM (active). The Ki [15] was > 2 µM (inactive), the Ki [16] was > 7.94 µM (inactive) and the Ki [17] was 5.01 µM (active).

With COC(C(=O)N1Cc2[nH]nc(NC(=O)c3ccc(N4CCN(C)CC4)cc3)c2C1)c1ccccc1 (configuration not stated) the Ki [18] was > 3.98 µM (inactive), the Ki [7] was > 1580 nM (inactive) and the Ki [15] was 0.0316 µM (active).
